Measurements reported in PMC7761077, “Differential Effects of Cancer-Associated Mutations Enriched in Helix H3 of PPARγ” (Cancers, 2020).
Each block holds one molecule with its values, some of them ahead of it.

Tests used:
[1] = target: MED1 co-activator peptide containing the LXXLL motif; assay: SPR; MED1 peptide amine-coupled to a CM5 chip (about 60 RU); PPARγ LBD WT or mutant injected at 78 nM to 10 μM, 30 μL/min, 120 s, dissociation 400 s; Biacore T200, 25 °C; 50 mM Tris-HCl pH 7.5, 150 mM NaCl, 1 mM TCEP, 0.005% tween 20; 1:1 Langmuir model
[2] = tested on: RXRα LBD; assay: SPR heterodimerization of PPARγ LBD proteins with immobilized RXRα LBD; format: binding
Procedure: The transcriptional activity of PPARγ is regulated by heterodimer formation with RXRα and the recruitment of co-regulators.
(§1) The binding affinities of PPARγ LBD with lobeglitazone, RXRα and MED1 were investigated by SPR kinetics experiments. All SPR experiments were conducted at 25 °C in a Biacore T200 system (GE Healthcare). For immobilization, an amine coupling kit containing 0.1 M N-hydroxysuccinimide and 0.4 M 1-ethyl-3-(3-dimethylaminopropyl) carbodiimide hydrochloride on a CM5 sensor chip with HBS-EP (HEPES-buffered saline with EDTA and surfactant P20) buffer (10 mM HEPES pH 7.5, 150 mM NaCl, 3 mM EDTA, 0.005% tween 20) was used according to the manufacturer’s protocol (GE Healthcare). […] The remaining activated carboxyl groups on the CM5 sensor chip surface were deactivated with 1 M ethanolamine at pH 8.5 for 400 s. The control experiment was treated identically with reference flow cell 1 or 3 without proteins and the response by the control was subtracted from each sample dataset. […] The sensor chip surface was regenerated for 5 s with 5 mM NaOH between cycles. […] The SPR response data were fit to the simple bimolecular 1:1 Langmuir isotherm binding model to determine the equilibrium dissociation constant (KD) using Biacore T200 evaluation software 3.0 (GE Healthcare).

[3] = tested on: MED1 peptide; assay: SPR binding of PPARγ LBD proteins to immobilized MED1 co-activator peptide
Procedure: Next, we evaluated the interaction between PPARγ LBD and MED1 co-activator peptides containing the LXXLL motif, where X represents any amino acid residue, by SPR (Figure 3D–F and Figure S8).
as §1

[4] = target: T1, PPARγ LBD WT (peroxisome proliferator-activated receptor gamma ligand-binding domain, wild-type) (human, UniProt P37231-2 195-477); assay: SPR; RXRα LBD amine-coupled to a CM5 chip (about 600 RU); PPARγ LBD WT or mutant injected, 30 μL/min, 120 s, dissociation 500 s; Biacore T200, 25 °C; 50 mM Tris-HCl pH 7.5, 150 mM NaCl, 1 mM TCEP, 0.005% tween 20; 1:1 Langmuir model; conditions: both partners purified
T1 construct: numbers count on: the PPARγ1 isoform; pET-28b(+) between Nde1 and Xho1; also called PPARγ WT; source: E. coli Rosetta 2(DE3), purified (Ni2+ HiTrap chelating, thrombin cleavage, Superdex200 gel filtration); not shown: His6, N-terminal, cleaved
T1 sequence (looked up): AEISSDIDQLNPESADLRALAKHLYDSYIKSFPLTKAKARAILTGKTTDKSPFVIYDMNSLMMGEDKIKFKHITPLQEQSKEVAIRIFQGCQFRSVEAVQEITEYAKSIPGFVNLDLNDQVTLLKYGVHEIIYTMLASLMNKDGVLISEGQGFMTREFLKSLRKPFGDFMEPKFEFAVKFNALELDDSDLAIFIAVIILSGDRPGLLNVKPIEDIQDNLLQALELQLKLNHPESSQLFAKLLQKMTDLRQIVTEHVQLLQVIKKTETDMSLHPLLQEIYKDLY

- Kd [1]: 8.45 µM
Molecule: PPARγ LBD WT (peroxisome proliferator-activated receptor gamma ligand-binding domain, wild-type) (from UniProt P37231-2 195-477) (domain or fragment)

- kd for RXRα LBD [2]: 0.0223 s⁻¹
- Kd ([2]; 25 °C, RXRα LBD immobilized): 0.0579 µM
- ka for MED1 peptide [3]: 146000 M⁻¹ s⁻¹
- kd for MED1 peptide [3]: 1.24 s⁻¹
- Kd ([3]; 25 °C, MED1 peptide immobilized): 8.45 µM
Molecule: PPARγ LBD WT: recombinant human PPARγ ligand-binding domain (residues 195–477), wild-type
- ka for RXRα LBD [2]: 396000 M⁻¹ s⁻¹

- Kd [4]: 0.0579 µM
B1: RXRα LBD (retinoid X receptor α ligand-binding domain) (domain or fragment, UniProt P19793 223-462, looked up)
chain: TSSANEDMPVERILEAELAVEPKTETYVEANMGLNPSSPNDPVTNICQAADKQLFTLVEWAKRIPHFSELPLDDQVILLRAGWNELLIASFSHRSIAVKDGILLATGLHVHRNSAHSAGVGAIFDRVLTELVSKMRDMQMDKTELGCLRAIVLFNPDSKGLSNPAEVEALREKVYASLEAYCKHKYPEQPGRFAKLLLRLPALRSIGLKCLEHLFFFKLIGDTPIDTFLMEMLEAPHQMT
